From patent publication EP0558245A1, “Heterobicyclic compounds as antagogists of alpha-1 adrenergic and SHT1A receptors” (priority 1992, dated 1993)
Counter-ions that a name gives are not always drawn. Like-named read-outs stand apart in the source and are kept apart here.

Tests used:
[1] = target: T1, 5HT1A receptors (Rattus norvegicus, UniProt P19327); assay: [3H]8-OH-DPAT binding (5HT1A receptors), rat hippocampus membranes; settings: rat hippocampus crude membranes, [3H]8-OH-DPAT 1.0 nM, 25°C 30 min; read-out: Receptor Binding IC50 (nM) 5-HT1a
T1 construct: Rat hippocampi were homogenized; from tissue; host or cells: rat hippocampus membranes
T1 sequence (P19327 1-422): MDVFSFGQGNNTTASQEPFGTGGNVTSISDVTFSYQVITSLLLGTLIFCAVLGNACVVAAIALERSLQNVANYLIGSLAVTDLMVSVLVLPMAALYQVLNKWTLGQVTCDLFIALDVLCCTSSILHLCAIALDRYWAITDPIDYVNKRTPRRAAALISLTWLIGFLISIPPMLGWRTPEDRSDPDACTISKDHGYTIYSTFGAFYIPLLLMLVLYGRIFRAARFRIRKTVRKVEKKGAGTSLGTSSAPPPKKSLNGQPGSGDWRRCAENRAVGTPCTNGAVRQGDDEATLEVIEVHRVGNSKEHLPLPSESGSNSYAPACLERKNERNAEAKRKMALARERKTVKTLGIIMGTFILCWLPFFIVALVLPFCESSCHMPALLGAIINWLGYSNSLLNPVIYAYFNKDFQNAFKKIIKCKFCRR

[2] = Acute toxicity in mice after intraperitoneal and oral administration; settings: mouse, in vivo, female albino Swiss mice, mortality recorded 7 days after administration
Procedure: Male Sprague Dawley rats [Crl: CD' BR] of 200-300 g b.w., female Albino Swiss mice [Crl: CD-1 (ICR) BR] 20-30 g b.w., and male Beagle dogs (10-12 kg b.w.) were obtained from Charles River, Italy and Nossan (Correzzana, Milan, Italy), respectively. Animals were housed with free access to food and water and maintained on forced light-dark cycle at 22-24°C until the day of experiments.
The acute toxicity of synthesized compounds was evaluated in female albino Swiss mice after intraperitoneal and oral administration. Four logarithmic scaled doses of the compounds were dissolved or suspended in 0.5% Methocel and administered in a volume of 10 ml/kg to groups of 4 mice/dose. Mortality was recorded 7 days after the administration. Data analysis: the LD₅₀ values and their fiducial limits were calculated according to the method of Weil (Biometrics, 8, 249, 1952).

[3] = target: α₁ receptors; assay: [3H]prazosin binding (α1 receptors), rat cerebral cortex membranes; settings: rat cerebral cortex crude membranes, [3H]prazosin 0.35 nM, 25°C 30 min; read-out: Receptor Binding IC50 (nM) α1
[4] = ip, intraperitoneal, read-out: Acute Toxicity in Mice LD50 (mg/kg) i.p.
[5] = oral, read-out: Acute Toxicity in Mice LD50 (mg/kg) p.o.

COc1ccccc1N1CCN(CCC(=O)c2cccc3c(=O)c(C)c(-c4ccccc4)oc23)CC1.Cl [Example 4, 8-{3-[4-(2-methoxyphenyl)-1-piperazinyl]-1-oxopropyl}-3-methyl-4-oxo-2-phenyl-4H-1-benzopyran hydrochloride]
IC50 [1]: 55 nM
LD50 at 168 h [2, 4]: 346 mg/kg
LD50 at 168 h [2, 5]: 1730 mg/kg
IC50 [3]: 550 nM

COc1ccccc1N1CCN(CCOC(=O)c2cccc3c(=O)c(C)c(-c4ccccc4)oc23)CC1.Cl.Cl [Example 6, 8-{2-[4-(2-methoxyphenyl)-1-piperazinyl]-ethoxycarbonyl}-3-methyl-4-oxo-2-phenyl-4H-1-benzopyran dihydrochloride]
IC50 [1]: 1000 nM
LD50 at 168 h [2, 4]: 233 mg/kg
IC50 [3]: 107 nM

Cc1c(-c2ccccc2)oc2c(C(=O)OCCCN3CCN(c4ccccc4Cl)CC3)cccc2c1=O.Cl.Cl [Example 7, 8-{3-[4-(2-chlorophenyl)-1-piperazinyl]-propoxycarbonyl}-3-methyl-4-oxo-2-phenyl-4H-1-benzopyran dihydrochloride]
IC50 [1]: 155 nM
LD50 at 168 h [2, 4]: 384 mg/kg
LD50 at 168 h [2, 5]: 1920 mg/kg
IC50 [3]: 86 nM

Cc1c(-c2ccccc2)oc2c(C(=O)OCCCN3CCN(c4ccccc4)CC3)cccc2c1=O.Cl.Cl [Example 8, 8-[3-(4-phenyl-1-piperazinyl)-propoxycarbonyl]-3-methyl-4-oxo-2-phenyl-4H-1-benzopyran dihydrochloride]
IC50 [1]: 111 nM
LD50 at 168 h [2, 4]: > 500 mg/kg
LD50 at 168 h [2, 5]: 1920 mg/kg
IC50 [3]: 66 nM

COc1ccccc1OCCNCCCNC(=O)c1cccc2c(=O)c(C)c(-c3ccccc3)oc12.Cl [Example 14, 8-{3-[2-(2-methoxyphenoxy)-ethylamino]-propylcarbamoyl}-3-methyl-4-oxo-2-phenyl-4H-1-benzopyran hydrochloride]
IC50 [1]: 6 nM
LD50 at 168 h [2, 4]: 140 mg/kg
LD50 at 168 h [2, 5]: 559 mg/kg
IC50 [3]: 61 nM

Cc1c(-c2ccccc2)oc2c(C(=O)NCCCN3CCN(c4ccccc4)CC3)cccc2c1=O [Example 15, 8-[3-(4-phenyl-1-piperazinyl)-propylcarbamoyl]-3-methyl-4-oxo-2-phenyl-4H-1-benzopyran monohydrochloride hemihydrate]
IC50 [1]: 131 nM
LD50 at 168 h [2, 4]: 306 mg/kg
LD50 at 168 h [2, 5]: 496 mg/kg
IC50 [3]: 8 nM

Cc1ccccc1N1CCN(CC(O)c2cccc3c(=O)c(C)c(-c4ccccc4)oc23)CC1.Cl (centres unmarked) [Example 18, 8-{1-hydroxy-2-[4-(2-methylphenyl)-1-piperazinyl]-ethyl}-3-methyl-4-oxo-2-phenyl-4H-1-benzopyran hydrochloride]
IC50 [1]: > 1000 nM
LD50 at 168 h [2, 4]: 457 mg/kg
LD50 at 168 h [2, 5]: 3000 mg/kg
IC50 [3]: 270 nM

CCOc1ccccc1N1CCN(CC(O)c2cccc3c(=O)c(C)c(-c4ccccc4)oc23)CC1.Cl (centres unmarked) [Example 19, 8-{1-Hydroxy-2-[4-(2-ethoxyphenyl)-1-piperazinyl]-ethyl}-3-methyl-4-oxo-2-phenyl-4H-1-benzopyran hydrochloride]
IC50 [1]: 340 nM
LD50 at 168 h [2, 4]: > 1000 mg/kg
LD50 at 168 h [2, 5]: > 3000 mg/kg
IC50 [3]: 165 nM

CCOC(CN1CCN(c2ccccc2OC)CC1)c1cccc2c(=O)c(C)c(-c3ccccc3)oc12.Cl (centres unmarked) [Example 22, 8-{1-ethoxy-2-[4-(2-methoxyphenyl)-1-piperazinyl]-ethyl}-3-methyl-4-oxo-2-phenyl-4H-1-benzopyran hydrochloride]
IC50 [1]: 48 nM
LD50 at 168 h [2, 4]: > 500 mg/kg
LD50 at 168 h [2, 5]: > 2000 mg/kg
IC50 [3]: 117 nM

COc1ccccc1N1CCN(CCN(Cc2cccc3c(=O)c(C)c(-c4ccccc4)oc23)C(C)=O)CC1.Cl [Example 24, 8-{N-acetyl-2-[4-(2-methoxyphenyl)-1-piperazinyl]-ethylaminomethyl}-3-methyl-4-oxo-2-phenyl-4H-1-benzopyran hydrochloride]
IC50 [1]: 212 nM
LD50 at 168 h [2, 4]: > 1000 mg/kg
LD50 at 168 h [2, 5]: > 3000 mg/kg
IC50 [3]: 690 nM

COc1ccccc1N1CCN(CC(=O)N(C)Cc2cccc3c(=O)c(C)c(-c4ccccc4)oc23)CC1 [Example 26, 8-{N-methyl-N-[4-(2-methoxyphenyl)-1-piperazinyl]-acetamidomethyl}-3-methyl-4-oxo-2-phenyl-4H-1-benzopyran hydrochloride hydrate]
IC50 [1]: > 1000 nM
LD50 at 168 h [2, 4]: > 500 mg/kg
LD50 at 168 h [2, 5]: > 2000 mg/kg
IC50 [3]: 270 nM

CCOc1ccccc1OCCNCCOCc1cccc2c(=O)c(C)c(-c3ccccc3)oc12.Cl [Example 28, 8-{2-[2-(2-ethoxyphenoxy)-ethylamino]-ethoxymethyl}-3-methyl-4-oxo-2-phenyl-4H-1-benzopyran hydrochloride]
IC50 [1]: 96 nM
LD50 at 168 h [2, 4]: 203 mg/kg
LD50 at 168 h [2, 5]: 1130 mg/kg
IC50 [3]: 120 nM

COc1ccccc1N1CCN(CCCN(C)c2cccc3c(=O)c(C)c(-c4ccccc4)oc23)CC1 [Example 35, 8-{N-methyl-3-[4-(2-methoxyphenyl)-1-piperazinyl]-propylamino}-3-methyl-4-oxo-2-phenyl-4H-1-benzopyran hydrochloride hemihydrate]
IC50 [1]: 8 nM
LD50 at 168 h [2, 4]: 329 mg/kg
LD50 at 168 h [2, 5]: 959 mg/kg
IC50 [3]: 15 nM

COc1ccccc1N1CCN(CCCN(C(C)=O)c2cccc3c(=O)c(C)c(-c4ccccc4)oc23)CC1.Cl.O [Example 36, 8-{N-acetyl-3-[4-(2-methoxyphenyl)-1-piperazinyl]-propylamino}-3-methyl-4-oxo-2-phenyl-4H-1-benzopyran hydrochloride hydrate]
IC50 [1]: 54 nM
LD50 at 168 h [2, 4]: > 500 mg/kg
LD50 at 168 h [2, 5]: > 2000 mg/kg
IC50 [3]: 18 nM

COc1ccccc1N1CCN(CCC(=O)Nc2cccc3c(=O)c(C)c(-c4ccccc4)oc23)CC1.Cl [Example 37, 8-{3-[4-(2-methoxyphenyl)-1-piperazinyl]-propionamido}-3-methyl-4-oxo-2-phenyl-4H-1-benzopyran hydrochloride]
IC50 [1]: 77 nM
LD50 at 168 h [2, 4]: > 500 mg/kg
LD50 at 168 h [2, 5]: > 2000 mg/kg
IC50 [3]: 32 nM

COc1ccccc1N1CCN(CCNC(=O)Nc2cccc3c(=O)c(C)c(-c4ccccc4)oc23)CC1.CS(=O)(=O)O [Example 38, 8-{2-[4-(2-methoxyphenyl)-1-piperazinyl]-ethylureido}-3-methyl-4-oxo-2-phenyl-4H-1-benzopyran methanesulphonate]
IC50 [1]: 344 nM
LD50 at 168 h [2, 4]: > 500 mg/kg
LD50 at 168 h [2, 5]: > 2000 mg/kg
IC50 [3]: 20 nM

COc1ccccc1N1CCN(CCOc2cccc3c(=O)c(C)c(-c4ccccc4)oc23)CC1.Cl.O [Example 39, 8-{2-[4-(2-methoxyphenyl)-1-piperazinyl]-ethoxy}-3-methyl-4-oxo-2-phenyl-4H-1-benzopyran hydrochloride hydrate]
IC50 [1]: 170 nM
LD50 at 168 h [2, 4]: > 1000 mg/kg
LD50 at 168 h [2, 5]: > 3000 mg/kg
IC50 [3]: 90 nM

COc1ccccc1N1CCN(CCNS(=O)(=O)c2cccc3c(=O)c(C)c(-c4ccccc4)oc23)CC1.Cl [Example 48, 8-{2-[4-(2-methoxyphenyl)-1-piperazinyl]-ethylsulphamoyl}-3-methyl-4-oxo-2-phenyl-4H-1-benzopyran hydrochloride]
IC50 [1]: 5 nM
LD50 at 168 h [2, 4]: 500 mg/kg
LD50 at 168 h [2, 5]: 1910 mg/kg
IC50 [3]: 104 nM

COc1ccccc1N1CCN(CCN(C)S(=O)(=O)c2cccc3c(=O)c(C)c(-c4ccccc4)oc23)CC1.Cl [Example 49, 8-{N-methyl-2-[4-(2-methoxyphenyl)-1-piperazinyl]-ethylsulphamoyl}-3-methyl-4-oxo-2-phenyl-4H-1-benzopyran hydrochloride]
IC50 [1]: 9 nM
LD50 at 168 h [2, 4]: 432 mg/kg
LD50 at 168 h [2, 5]: > 2000 mg/kg
IC50 [3]: 152 nM

COc1ccccc1N1CCN(CCCN(C(N)=O)c2cccc3c(=O)c(C)c(-c4ccccc4)oc23)CC1 [Example 50, 8-{N-carbamoyl-3-[4-(2-methoxyphenyl)-1-piperazinyl]-propylamino}-3-methyl-4-oxo-2-phenyl-4H-1-benzopyran methanesulphonate hemihydrate]
IC50 [1]: 300 nM
LD50 at 168 h [2, 4]: 211 mg/kg
LD50 at 168 h [2, 5]: 299 mg/kg
IC50 [3]: 39 nM

Cc1c(-c2ccccc2)oc2c(C(=O)NCCCNCC3COc4ccccc4O3)cccc2c1=O (centres unmarked) [Example 52, 8-{3-[2-(1,4-benzodioxanyl)methylamino]propylcarbamoyl}-3-methyl-4-oxo-2-phenyl-4H-1-benzopyran methansulphonate]
IC50 [1]: 2 nM
LD50 at 168 h [2, 4]: 127 mg/kg
LD50 at 168 h [2, 5]: 224 mg/kg
IC50 [3]: 89 nM
